Holding throughout (assay type): biochemical
The target in one test is T1, recombinant human VAP-1 (Homo sapiens, UniProt Q16853).
T1 construct: purchased R&D systems
T1 sequence (Q16853 1-763): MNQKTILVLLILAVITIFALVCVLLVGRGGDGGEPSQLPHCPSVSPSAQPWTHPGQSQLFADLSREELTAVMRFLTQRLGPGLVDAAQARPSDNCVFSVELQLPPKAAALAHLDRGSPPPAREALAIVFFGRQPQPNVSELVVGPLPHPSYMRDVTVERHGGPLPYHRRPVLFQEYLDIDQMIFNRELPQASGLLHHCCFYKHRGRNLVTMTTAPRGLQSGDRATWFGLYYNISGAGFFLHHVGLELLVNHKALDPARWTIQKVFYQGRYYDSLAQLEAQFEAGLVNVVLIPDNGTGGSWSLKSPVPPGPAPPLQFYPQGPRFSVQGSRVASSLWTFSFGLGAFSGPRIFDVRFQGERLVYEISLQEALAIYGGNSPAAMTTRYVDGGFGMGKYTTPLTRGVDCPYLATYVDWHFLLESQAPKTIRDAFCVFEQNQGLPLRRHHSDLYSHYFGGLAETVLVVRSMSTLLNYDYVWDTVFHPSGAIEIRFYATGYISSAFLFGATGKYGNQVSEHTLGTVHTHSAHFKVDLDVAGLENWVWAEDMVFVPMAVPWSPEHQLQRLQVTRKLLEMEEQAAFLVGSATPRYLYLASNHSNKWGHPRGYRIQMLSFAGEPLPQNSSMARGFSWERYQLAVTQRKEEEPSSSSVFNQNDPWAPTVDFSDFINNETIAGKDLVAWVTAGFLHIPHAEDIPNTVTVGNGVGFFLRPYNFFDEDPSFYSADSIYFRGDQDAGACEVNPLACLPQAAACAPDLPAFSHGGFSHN
Nature of the test: Activity on recombinant human VAP-1, HRP-coupled Amplex Red hydrogen peroxide assay. Particulars: substrate 1 mM benzylamine; compound incubated with enzyme at 37° C. for 30 minutes; pH 7.4; read-out: Inhibitory Activity (IC50, nM) human VAP-1. The gist of the method: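 Fluorescence of resorufin formed from H2O2 (ex 544 nm, em 590 nm) was tracked for 1-2 h after adding 1 mM benzylamine, 200 uM Amplex Red and 1 U/mL HRP to enzyme pretreated with compound for 30 min at 37 °C. IC50 values derive from four-variable logistic fits.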

In test [1] the target is T2, recombinant human MAO-A (monoamine oxidase-A) (Homo sapiens, UniProt P21397).
T2 construct: purchased Sigma-Aldrich
T2 sequence (P21397 1-527): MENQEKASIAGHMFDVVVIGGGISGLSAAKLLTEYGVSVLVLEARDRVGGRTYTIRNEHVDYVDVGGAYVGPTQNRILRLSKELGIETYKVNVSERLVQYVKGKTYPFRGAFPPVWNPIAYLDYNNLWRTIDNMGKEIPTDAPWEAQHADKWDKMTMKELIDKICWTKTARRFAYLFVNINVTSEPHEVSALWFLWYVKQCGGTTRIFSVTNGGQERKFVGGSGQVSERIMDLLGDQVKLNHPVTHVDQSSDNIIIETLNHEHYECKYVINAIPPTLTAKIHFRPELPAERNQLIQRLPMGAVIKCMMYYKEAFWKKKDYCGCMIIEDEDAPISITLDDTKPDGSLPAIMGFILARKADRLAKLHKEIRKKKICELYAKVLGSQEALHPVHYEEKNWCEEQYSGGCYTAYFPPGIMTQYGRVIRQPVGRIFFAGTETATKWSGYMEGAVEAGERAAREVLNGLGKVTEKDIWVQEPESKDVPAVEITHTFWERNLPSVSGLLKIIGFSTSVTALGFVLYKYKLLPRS
Nature of the test: Activity on recombinant human MAO-A, method similar to the VAP-1 assay. As to conditions: substrate 0.5 mM tyramine; read-out: Inhibitory Activity (IC50, nM) MAO-A. The method, boiled down:
(§1)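 Fluorescence (544/590 nm) of resorufin formed from Amplex Red by HRP and enzyme-generated H2O2 was followed over 1-2 h. Substrates were 0.5 mM tyramine for MAO-A and 1 mM benzylamine for MAO-B; compounds were preincubated with enzyme for 30 min at 37° C. IC50 came from four-parameter logistic fitting of signal-rate inhibition.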

Test [2] has as its target T3, recombinant human MAO-B (monoamine oxidase-B) (Homo sapiens, UniProt P27338).
T3 construct: purchased Sigma-Aldrich
T3 sequence (P27338 1-520): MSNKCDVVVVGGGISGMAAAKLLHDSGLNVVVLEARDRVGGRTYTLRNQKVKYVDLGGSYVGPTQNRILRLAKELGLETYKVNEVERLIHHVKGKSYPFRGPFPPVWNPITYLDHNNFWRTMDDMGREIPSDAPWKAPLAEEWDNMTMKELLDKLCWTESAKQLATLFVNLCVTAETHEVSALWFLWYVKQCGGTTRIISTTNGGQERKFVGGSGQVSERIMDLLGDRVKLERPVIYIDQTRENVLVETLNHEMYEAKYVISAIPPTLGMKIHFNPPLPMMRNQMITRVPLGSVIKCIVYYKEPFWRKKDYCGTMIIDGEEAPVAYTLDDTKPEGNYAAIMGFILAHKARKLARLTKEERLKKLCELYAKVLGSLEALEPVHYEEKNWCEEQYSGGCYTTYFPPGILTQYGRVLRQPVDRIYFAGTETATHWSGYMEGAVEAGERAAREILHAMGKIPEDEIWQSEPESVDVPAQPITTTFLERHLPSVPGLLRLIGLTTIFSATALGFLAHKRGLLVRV
The experiment in a line: Activity on recombinant human MAO-B, method similar to the VAP-1 assay. As to conditions: substrate 1 mM benzylamine; read-out: Inhibitory Activity (IC50, nM) MAO-B. The gist of the method: as §1

Test [3] concerns the target T4, recombinant human DAO (diamine oxidase) (Homo sapiens, UniProt P19801).
T4 construct: purchased R&D systems
T4 sequence (P19801 20-751): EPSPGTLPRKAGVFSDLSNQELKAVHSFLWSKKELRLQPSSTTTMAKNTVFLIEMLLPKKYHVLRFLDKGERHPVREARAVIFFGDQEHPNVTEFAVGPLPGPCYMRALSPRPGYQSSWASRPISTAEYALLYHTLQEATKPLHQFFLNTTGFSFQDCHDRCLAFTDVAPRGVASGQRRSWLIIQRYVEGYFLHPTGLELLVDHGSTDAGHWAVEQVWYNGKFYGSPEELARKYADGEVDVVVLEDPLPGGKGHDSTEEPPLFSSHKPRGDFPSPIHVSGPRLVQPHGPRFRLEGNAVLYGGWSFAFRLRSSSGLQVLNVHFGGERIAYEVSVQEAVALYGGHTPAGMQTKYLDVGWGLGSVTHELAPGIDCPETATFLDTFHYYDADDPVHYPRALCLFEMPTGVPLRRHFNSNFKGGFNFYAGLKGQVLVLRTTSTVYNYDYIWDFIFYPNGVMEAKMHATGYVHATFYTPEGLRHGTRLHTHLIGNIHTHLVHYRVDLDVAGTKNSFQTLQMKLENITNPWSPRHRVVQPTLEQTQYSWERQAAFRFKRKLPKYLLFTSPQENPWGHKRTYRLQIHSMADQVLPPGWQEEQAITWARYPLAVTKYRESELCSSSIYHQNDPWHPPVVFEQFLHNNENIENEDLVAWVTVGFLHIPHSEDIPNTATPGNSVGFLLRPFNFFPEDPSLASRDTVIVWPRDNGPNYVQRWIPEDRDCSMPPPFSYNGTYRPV
The experiment in a line: Activity on recombinant human DAO, method similar to the VAP-1 assay. Particulars: substrate 1 mM putrescine; read-out: Inhibitory Activity (IC50, nM) DAO. The gist of the method: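 Inhibition of recombinant human diamine oxidase (DAO, R&D systems) was assessed by the same approach as the VAP-1 assay, using 1 mM putrescine as substrate. Hydrogen peroxide formed was detected through an HRP-coupled Amplex Red reaction yielding fluorescent resorufin, read at 544 nm excitation and 590 nm emission. IC50 values came from four-parameter logistic fitting in GraphPad Prism.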

Each structure is given as a SMILES string. Counter-ions that a name gives are not always drawn.

For the molecule `CN(C)c1ccc(-c2ccc(Cn3cnn(C/C(=C/F)CN)c3=O)s2)cn1` [Example 42, 2-[(2E)-2-(aminomethyl)-3-fluoroprop-2-en-1-yl]-4-(5-[6-(dimethylamino)pyridin-3-yl]thiophen-2-ylmethyl)-2,4-dihydro-3H-1,2,4-triazol-3-one hydrochloride], the IC50 (commonly the concentration needed to halve the response being measured) at recombinant human VAP-1 is 0.7 nM; in test [1], > 100000 nM; in test [2], 5100 nM; in test [3] it was 570 nM.
`NC/C(=C\F)Cn1ncn(Cc2ccc(-c3cnc4scnc4c3)s2)c1=O` [Example 64, 2-[(2E)-2-(aminomethyl)-3-fluoroprop-2-en-1-yl]-4-[5-([1,3]thiazolo[5,4-b]pyridin-6-yl)thiophen-2-yl]methyl-2,4-dihydro-3H-1,2,4-triazol-3-one hydrochloride]: the IC50 at recombinant human VAP-1 was 0.7 nM; in test [1], 6700 nM; in test [2], 2200 nM; in test [3], 110 nM.
The matching figures for `CCn1cc(-c2ccc3sc(Cn4cnn(C/C(=C/F)CN)c4=O)cc3c2)cn1` [Example 214, 2-[(2E)-2-(aminomethyl)-3-fluoroprop-2-en-1-yl]-4-{[5-(1-ethyl-1H-pyrazol-4-yl)-1-benzothiophen-2-yl]methyl}-2,4-dihydro-3H-1,2,4-triazol-3-one]: 1.6 nM, > 100000 nM, 2200 nM and 1400 nM.
In the case of `NC/C(=C\F)Cn1ncn(Cc2ccc(-c3ccc4[nH]ncc4c3)s2)c1=O` [Example 63, 2-[(2E)-2-(aminomethyl)-3-fluoroprop-2-en-1-yl]-4-[5-(1H-indazol-5-yl)thiophen-2-yl]methyl-2,4-dihydro-3H-1,2,4-triazol-3-one hydrochloride], the IC50 amounted to 0.9 nM on recombinant human VAP-1, 67000 nM in test [1], 380 nM in test [2] and 1200 nM in test [3].
Take `NC/C(=C\F)Cn1ncn(Cc2ccc(-c3ccc(F)c(F)c3)s2)c1=O` [Example 14, 2-[(2E)-2-(aminomethyl)-3-fluoroprop-2-en-1-yl]-4-[5-(3,4-difluorophenyl)thiophen-2-yl]methyl-2,4-dihydro-3H-1,2,4-triazol-3-one hydrochloride]: the IC50 was 6.5 nM at recombinant human VAP-1, > 100000 nM in test [1], < 100 nM in test [2] and 2400 nM in test [3].
The matching figures for `NC/C(=C\F)Cn1ncn(Cc2ccc(-c3cnc(N)nc3)s2)c1=O` [Example 167, 2-[(2E)-2-(aminomethyl)-3-fluoroprop-2-en-1-yl]-4-{[5-(2-aminopyrimidin-5-yl)thiophen-2-yl]methyl}-2,4-dihydro-3H-1,2,4-triazol-3-one]: 2.4 nM, > 100000 nM, > 10000 nM and 1800 nM.
For `NC/C(=C\F)Cn1ncn(Cc2ccc(/C=C/c3ccc(F)cc3)s2)c1=O` [Example 117, 2-[(2E)-2-(aminomethyl)-3-fluoroprop-2-en-1-yl]-4-(5-[(E)-2-(4-fluorophenyl)ethenyl]thiophen-2-ylmethyl)-2,4-dihydro-3H-1,2,4-triazol-3-one hydrochloride] the same measures were 1.3 nM, 93000 nM, 270 nM and 1200 nM.
